# Experiments:
# [1] = In situ rat intestinal perfusion (site-specific absorption); type: in vivo; conditions: rat, in vivo, 50 μg/mL, pH 6.8
# Text: The rat intestine perfusion technique is a direct way to measure the regional absorption properties of a test compound in the gastrointestinal tract. Rat intestinal permeability coefficient (Peff) can be used to predict human in vivo oral absorption of passively absorbed compounds. Fagerholm, M. Johansson, and […], “Comparison between permeability coefficients in rat and human jejunum”, Pharm. […] Meanwhile, some other characteristics such as formulable Maximum Absorbable Dose (MAD), FDA Biopharmaceutical Classification, etc. can also be estimated. […] Rats used in this study were Charles River CD males, ranging in weight from approximately 300-350 grams. Metoprolol (a well-absorbed and passively transported compound) was used as a standard and tested simultaneously along with the ODV compounds. […] All chemicals were of analytical grade. After each experiment, all the analytic assays were performed promptly. For isotope determinations, 0.5 mL of perfusate sample containing ^14C PEG-4000 and ^3H-mannitol was mixed with 5 mL of scintillation cocktail. Radioactivity was counted in a liquid scintillation counter (Wallac 1409). Glucose concentration was determined by the glucose oxidase method (Biochemistry Analyzer). Metoprolol and the ODV compounds were analyzed by HPLC-UV/Vis (HP-1100 with a diode-array detector), using a YMC AQ 120 μ, 5 μ, 150×4.6 mm column and step gradient mobile phase containing water/0.1% TFA and acetonitrile. The ODV compounds and metoroplol were detected at 226 and 272 nm UV wavelength, respectively. Blank perfusate was assayed to evaluate the interference at these chromatographic conditions. The perfusions were performed in three intestinal sections of anesthetized rats: duodenum-jejunum, ileum, and colon. The lengths of the segments were approximately 10-12 cm for small intestine segments and 5-6 cm for colon segments. An inflow cannula was inserted at the proximal end and an outflow cannula was inserted at the distal end. Perfusate was pumped through the segment at 0.19 mL/min, and collected at 20, 40, 55, 70, 85 and 100 minutes. […] The disappearance rates of ODV compound, metoprolol, and glucose were determined from each collection interval by comparing to the initial compound solution remaining in the syringe at the end of the 100 minutes. This is to correct for any losses due to binding to the syringe or tubing. Meanwhile, drug concentration in perfusate samples were corrected for water influx/efflux, which was computed, based on ^14C-PEG-4000 concentration changes. […] Values below this range would indicate tissue damage that allows passage of PEG-4000 outside of the perfused segment, while values above this range would indicate significant water movement out of the segment. Water movement across the gut wall was determined by calculation of net water fluid: Net Water Flux (NWF)=[(1-[…] where PEGout and PEGin are the amount of radioactivity (dpm) of ^14C-PEG-4000 in inlet and outlet sides of the perfused intestinal segment, respectively; Q is the flow rate of perfusate; and L is the length of perfused segment (cm). The presence of the ODV compound in the perfusate was determined by HPLC. The amount of drug present at each time point was corrected for water movement across the wall of the intestine: Cout,[…]) where Cout is the concentration of drug in outlet perfusate; Cout,corr is the concentration of drug in outlet perfusate corrected for water moving in or out of the segment, as determined by the recovery of ^14C-PEG-4000. Effective intestinal permcability, Peff (cm/sec), was determined by the following equation: […] Cin is the concentration of drug in inlet perfusate; 2 μrL is the inner surface area of the perfused segment, with r assumed to be 0.18 cm in the rat (see G. Amidon, […]. Crison. “A theoretical basis for a biopharmaceutic drug classification: The correlation of in vitro drug product dissolution and in vivo bioavailability.” Pharm. Res. 12, 1995, 413-420) and L the length of the perfused segment (cm). […]
# [2] = Stability in perfusion buffer and jejunal fluids; type: in vitro ADME, rat; conditions: for relative percentage remaining of HPLC peak area: 37° C.
# Protocol: The stability of ODV succinate or fumarate in the solutions of blank perfusion buffer (Pβ), and jejunal fluids (perfusion buffer collected by washing the isolated jejunal segment, pH=6.8) was determined at 37° C. for up to 6 hours.
structure (smiles),measurement,setting,value
"CN(C)CC(c1ccc(O)cc1)C1(O)CCCCC1.O=C(O)CCC(=O)O (stereo not drawn) [ODV succinate, O-desmethyl-venlafaxine succinate]",Peff as percentage of metoprolol's Peff value,"[1]; male, Charles River CD",about 10%
same,Peff's ratio of duodenum-jejunum vs. ileum vs. colon,"[1]; male, Charles River CD",1.00:1.90:0.07
same,human in vivo Fa predicted,[1],60-77%
same,relative percentage remaining of HPLC peak area,"[2]; Blank Perfusion Buffer, 0 hours",100.0%
same,relative percentage remaining of HPLC peak area,"[2]; Blank Perfusion Buffer, 2 hours",99.9%
same,relative percentage remaining of HPLC peak area,"[2]; Blank Perfusion Buffer, 3 hours",100.3%
same,relative percentage remaining of HPLC peak area,"[2]; Blank Perfusion Buffer, 6 hours",99.9%
same,relative percentage remaining of HPLC peak area,"[2]; Intestinal fluid (pH 6.8, total protein approx. 0.2 mg/ml), 0 hours",100.0%
same,relative percentage remaining of HPLC peak area,"[2]; Intestinal fluid (pH 6.8, total protein approx. 0.2 mg/ml), 2 hours",99.6%
same,relative percentage remaining of HPLC peak area,"[2]; Intestinal fluid (pH 6.8, total protein approx. 0.2 mg/ml), 3 hours",99.8%
same,relative percentage remaining of HPLC peak area,"[2]; Intestinal fluid (pH 6.8, total protein approx. 0.2 mg/ml), 6 hours",100.1%
same,stability in blank perfusion buffer and jejunal fluids,"[2]; pH 6.8, 37° C., up to 6 hours",no apparent degradation/metabolism

# — patent publication US7291347B2, “Succinate salt of O-desmethyl-venlafaxine” (Wyeth, priority 2001, dated 2007)
